Source: PMC10817917, “Alkyl deoxyglycoside-polymyxin combinations against critical priority carbapenem-resistant gram-negative bacteria” (Scientific Reports, 2024)
Read-outs that look alike come from different tables or passages of the source.

Experiments:
E. coli ATCC 25922 = experiment: Broth microdilution MIC/MBC, glycosides with or without polymyxins; format: cell-based, Escherichia coli; settings: for MIC: Escherichia coli, ATCC25922
A. baumannii CQ4322 = experiment: as above; format: cell-based, Acinetobacter baumannii; settings: for MIC: Acinetobacter baumannii, CQ4322
E. coli NCTC 13846 = experiment: as above; format: cell-based, Escherichia coli; settings: strain B
K. pneumoniae CQ4921 = experiment: as above; format: cell-based, Klebsiella pneumoniae; settings: for MIC: Klebsiella pneumoniae, CQ4921
Caco-2 cells = experiment: Resazurin cell viability assay (cytotoxicity); format: cell-based, human; settings: Homo sapiens, Caco-2, 72 h, read-out: IC50
Experimental: (§1) Cytotoxicity of each compound alone or in combination with different polymyxin concentrations was evaluated through the resazurin cell viability assay[49] in human embryonic HEK-293T cells, as well as in human colon adenocarcinoma Caco-2 cells, after a 72-h long incubation period.
(§2) HEK-293T and Caco-2 cells were grown in RPMI 1640 medium (VWR) supplemented with 10% FBS (Biowest), 1% PenStrep (Sigma Aldrich), and 1% glutamine (Biowest) in a humidified incubator at 37 °C with a 5% CO2 atmosphere. Twice a week, the medium was aspirated, the cells were washed with DPBS (VWR), trypsinized with trypsin–EDTA solution (Biowest), and resuspended in fresh culture medium. The dose-dependent effects of each glycoside or glycoside-polymyxin combination were evaluated by the resazurin cell viability assay. Polymyxins (colistin sulfate and PMB sulfate for microbiological assays, European Pharmacopoeia Reference Standards, Sigma-Aldrich) were firstly dissolved in sterilized Mili-Q water to a stock concentration of 1 mg/mL, while glycosides were dissolved in DMSO to a stock concentration of 30 mM. 1.5 × 10^4 cells/well in 96.5 µL of medium were seeded onto 96-well plates and incubated at 37 °C for 24 h. For each compound, ten stock dilutions (with concentrations from 750 to 75 µM) were prepared in fresh medium immediately prior to incubation. 16 µL of each dilution were added to each well so that the final glycoside concentrations ranged from 100 to 10 µM in each row in a final assay volume of 120 µL. In addition, the previously prepared polymyxin stock solutions were diluted in fresh medium, affording new stocks of 8, 4, and 2 µg/mL. The same volume (7.5 µL/well) of PMB or colistin was then added to each row to achieve a final polymyxin concentration of 0.5, 0.25, and 0.125 µg/mL, respectively, regardless of the glycoside concentration. In assays without polymyxin, the same volume (7.5 µL/well) of medium was added. In all assays, the maximum DMSO concentration was 0.33%. After a 72-h incubation at 37 °C, 12 µL of a 0.15 mg/mL resazurin (Sigma-Aldrich) in sterilized Mili-Q water were added to each well, and the plates were left incubating for another 4 h at 37 °C. Resorufin was measured at 570/600 nm, and the percentage of resazurin reduction, corresponding to the cell viability percentage, was calculated according to Eq. (1)[60]. IC50 values were obtained by best fitting the dose-dependent inhibition curves using the Prism 9® software. The results were expressed as the mean ± SD of three independent replicates, with only data from analysis with R^2 > 0.90 being considered.1 %Cellviability=Abssample-Absmediumcontrol/Abscellcontrol-Absmediumcontrol×100

HEK-293T cells = experiment: Resazurin cell viability assay (cytotoxicity); format: cell-based, human; settings: Homo sapiens, HEK-293T, 72 h, read-out: IC50
Experimental: as §1, §2

[1] = alone, read-out: MICA (MIC of each compound individually)
[2] = combination with the lowest FICI
[3] = compound + colistin, lowest FICI
[4] = tested alone (no polymyxin adjuvant)

MIC of colistin in combination with the compound (E. coli ATCC 25922; Cpd conc. 0.4 μg/mL, strain A): 0.5 µg/mL | MIC of colistin in combination with the compound (E. coli ATCC 25922; Cpd conc. 0.8 μg/mL, strain A): 0.5 µg/mL | MIC of colistin in combination with the compound (E. coli ATCC 25922; Cpd conc. 3.125 μg/mL, strain A): 0.25 µg/mL | MIC of colistin in combination with the compound (E. coli ATCC 25922; Cpd conc. 6.25 μg/mL, strain A): 0.25 µg/mL | MIC of colistin in combination with the compound (E. coli ATCC 25922; Cpd conc. 12.5 μg/mL, strain A): 0.25 µg/mL | MIC of colistin in combination with the compound (E. coli ATCC 25922; Cpd conc. […], strain A): 0.5 µg/mL | MIC (E. coli ATCC 25922; agent alone, no adjuvant (polymyxin conc. 0), strain A, read-out: MIC): > 100 µg/mL | MIC (E. coli ATCC 25922; [1]): > 100 µg/mL | MIC of compound in combination with PMB (E. coli ATCC 25922; PMB 0.25 μg/mL, strain A): 3.1 µg/mL | MIC of compound in combination with PMB (E. coli ATCC 25922; PMB 0.5 μg/mL, strain A): ≤ 0.1 µg/mL | MIC of compound in combination with colistin (E. coli ATCC 25922; colistin 0.06 μg/mL, strain A): > 100 µg/mL | MIC of compound in combination with colistin (E. coli ATCC 25922; colistin 0.125 μg/mL, strain A): > 100 µg/mL | MIC of compound in combination with colistin (E. coli ATCC 25922; colistin 0.25 μg/mL, strain A): 3.1 µg/mL | MIC of compound in combination with colistin (E. coli ATCC 25922; colistin 0.5 μg/mL, strain A): ≤ 0.1 µg/mL | MICA(A + B) (MIC of compound in combination with colistin) (E. coli ATCC 25922; [2]): 3.125 µg/mL | MICB(A + B) (MIC of colistin in combination with compound) (E. coli ATCC 25922; [2]): 0.25 µg/mL | MIC (A. baumannii CQ4322; agent alone, no adjuvant (polymyxin conc. 0), strain G, read-out: MIC): > 100 µg/mL | MIC (A. baumannii CQ4322; [1]): > 100 µg/mL | MIC of colistin in combination with the compound (A. baumannii CQ4322; Cpd conc. 0.4 μg/mL, strain G): 0.5 µg/mL | MIC of colistin in combination with the compound (A. baumannii CQ4322; Cpd conc. 0.8 μg/mL, strain G): 0.5 µg/mL | MIC of colistin in combination with the compound (A. baumannii CQ4322; Cpd conc. 3.125 μg/mL, strain G): 0.5 µg/mL | MIC of colistin in combination with the compound (A. baumannii CQ4322; Cpd conc. 6.25 μg/mL, strain G): 0.25 µg/mL | MIC of colistin in combination with the compound (A. baumannii CQ4322; Cpd conc. 12.5 μg/mL, strain G): 0.25 µg/mL | MIC of colistin in combination with the compound (A. baumannii CQ4322; Cpd conc. […], strain G): 0.5 µg/mL | MIC of compound in combination with PMB (A. baumannii CQ4322; PMB 0.25 μg/mL, strain G): > 100 µg/mL | MIC of compound in combination with PMB (A. baumannii CQ4322; PMB 0.5 μg/mL, strain G): 0.8 µg/mL | MIC of compound in combination with colistin (A. baumannii CQ4322; colistin 0.06 μg/mL, strain G): > 100 µg/mL | MIC of compound in combination with colistin (A. baumannii CQ4322; colistin 0.125 μg/mL, strain G): > 100 µg/mL | MIC of compound in combination with colistin (A. baumannii CQ4322; colistin 0.25 μg/mL, strain G): 6.3 µg/mL | MIC of compound in combination with colistin (A. baumannii CQ4322; colistin 0.5 μg/mL, strain G): ≤ 0.1 µg/mL | MICA(A + B) (MIC of compound in combination with colistin) (A. baumannii CQ4322; [2]): 6.25 µg/mL | MICB(A + B) (MIC of colistin in combination with compound) (A. baumannii CQ4322; [2]): 0.25 µg/mL | MIC of colistin in combination with the compound (E. coli NCTC 13846; Cpd conc. 0.4 μg/mL): > 0.5 µg/mL | MIC of colistin in combination with the compound (E. coli NCTC 13846; Cpd conc. 0.8 μg/mL): > 0.5 µg/mL | MIC of colistin in combination with the compound (E. coli NCTC 13846; Cpd conc. 3.125 μg/mL): > 0.5 µg/mL | MIC of colistin in combination with the compound (E. coli NCTC 13846; Cpd conc. 6.25 μg/mL): > 0.5 µg/mL | MIC of colistin in combination with the compound (E. coli NCTC 13846; Cpd conc. 12.5 μg/mL): > 0.5 µg/mL | MIC of colistin in combination with the compound (E. coli NCTC 13846; Cpd conc. […]): > 0.5 µg/mL | MIC (E. coli NCTC 13846; Escherichia coli, NCTC13846, agent alone, no adjuvant (polymyxin conc. 0), read-out: MIC): > 100 µg/mL | MIC of compound in combination with PMB (E. coli NCTC 13846; PMB 0.25 μg/mL): > 100 µg/mL | MIC of compound in combination with PMB (E. coli NCTC 13846; PMB 0.5 μg/mL): > 100 µg/mL | MIC of compound in combination with colistin (E. coli NCTC 13846; colistin 0.06 μg/mL): > 100 µg/mL | MIC of compound in combination with colistin (E. coli NCTC 13846; colistin 0.125 μg/mL): > 100 µg/mL | MIC of compound in combination with colistin (E. coli NCTC 13846; colistin 0.25 μg/mL): > 100 µg/mL | MIC of compound in combination with colistin (E. coli NCTC 13846; colistin 0.5 μg/mL): > 100 µg/mL | MIC of colistin in combination with the compound (K. pneumoniae CQ4921; Cpd conc. 0.4 μg/mL, strain C): 0.5 µg/mL | MIC of colistin in combination with the compound (K. pneumoniae CQ4921; Cpd conc. 0.8 μg/mL, strain C): 0.5 µg/mL | MIC of colistin in combination with the compound (K. pneumoniae CQ4921; Cpd conc. 3.125 μg/mL, strain C): 0.25 µg/mL | MIC of colistin in combination with the compound (K. pneumoniae CQ4921; Cpd conc. 6.25 μg/mL, strain C): 0.25 µg/mL | MIC of colistin in combination with the compound (K. pneumoniae CQ4921; Cpd conc. 12.5 μg/mL, strain C): 0.25 µg/mL | MIC of colistin in combination with the compound (K. pneumoniae CQ4921; Cpd conc. […], strain C): 0.5 µg/mL | MIC (K. pneumoniae CQ4921; agent alone, no adjuvant (polymyxin conc. 0), strain C, read-out: MIC): > 100 µg/mL | MIC (K. pneumoniae CQ4921; [1]): > 100 µg/mL | MIC of compound in combination with PMB (K. pneumoniae CQ4921; PMB 0.5 μg/mL, strain C): ≤ 0.1 µg/mL | MIC of compound in combination with colistin (K. pneumoniae CQ4921; colistin 0.06 μg/mL, strain C): > 100 µg/mL | MIC of compound in combination with colistin (K. pneumoniae CQ4921; colistin 0.125 μg/mL, strain C): > 100 µg/mL | MIC of compound in combination with colistin (K. pneumoniae CQ4921; colistin 0.25 μg/mL, strain C): 3.1 µg/mL | MIC of compound in combination with colistin (K. pneumoniae CQ4921; colistin 0.5 μg/mL, strain C): 0.2 µg/mL | MICA(A + B) (MIC of compound in combination with colistin) (K. pneumoniae CQ4921; [2]): 3.125 µg/mL | MICB(A + B) (MIC of colistin in combination with compound) (K. pneumoniae CQ4921; [2]): 0.25 µg/mL
SMILES: CCCCCCCCCCCCO[C@H]1C[C@H](O)[C@@H](O)[C@H](C)O1 [Compound 3, dodecyl 2,6-dideoxy-α-L-arabino-hexopyranoside]
Interpretation (of FICI) (E. coli ATCC 25922; compound + colistin): Additive (from 0.5 to 1.0 were additive) | FICI (E. coli ATCC 25922; [3]): 0.52 | Interpretation (of FICI) (A. baumannii CQ4322; compound + colistin): Additive (from 0.5 to 1.0 were additive) | FICI (A. baumannii CQ4322; [3]): 0.53 | Interpretation (of FICI) (K. pneumoniae CQ4921; compound + colistin): Additive (from 0.5 to 1.0 were additive) | FICI (K. pneumoniae CQ4921; [3]): 0.52 | IC50 (Caco-2 cells; Colistin 0.25 μg/mL): 69.2 ± 1.25 µM | IC50 (Caco-2 cells; Colistin 0.5 μg/mL): 68.2 ± 2.12 µM | IC50 (Caco-2 cells; No polymyxin): 68.9 ± 2.21 µM | IC50 (Caco-2 cells; [4]): 21.8 µg/mL | IC50 (HEK-293T cells; Colistin 0.5 μg/mL): 79.3 ± 2 µM | IC50 (HEK-293T cells; No polymyxin): 72.5 ± 2.51 µM | IC50 (HEK-293T cells; PMB 0.5 μg/mL): 75.1 ± 2.7 µM | IC50 (HEK-293T cells; [4]): 22.9 µg/mL
